Consider four molecules from PMC9967700, “Metabolism-Guided Optimization of Tryptophanol-Derived Isoindolinone p53 Activators” (Pharmaceuticals, 2023).

Where two headings read alike, the source gives them in different places.

For series [1], the system named is HCT116 p53−/− cells. The experiment in a line: Antiproliferative activity, sulforhodamine B (SRB) assay. It is filed as cell-based, human. Conditions: Homo sapiens, HCT-116, 48 h, 48 h treatment, read-out: HCT116 p53−/− GI50. The protocol:
(§1) Tumor cells were cultured in RPMI-1640 with UltraGlutamine (Lonza, VWR), supplemented with 10% fetal bovine serum (FBS; Gibco, Alfagene) and maintained in a humidified incubator at 37 °C with 5% CO2. Cell lines were seeded in 96-well plates at the cells/well density of 5.0 × 10^3.

Series [2] deals with HCT116 p53+/+ cells. Described as above. It is filed as cell-based, human. Conditions: for S.I. (selectivity index): HCT116 p53−/− versus HCT116 p53+/+; for GI50: Homo sapiens, HCT-116, 48 h treatment, read-out: HCT116 p53+/+ GI50. The protocol:
as §1

Series [3] in a line: In vitro reactions with bionucleophiles. The protocol: To a solution of compound 13d in acetonitrile (1.00 eq., 10.1 mg in 400 µL, 5.04 × 10^−2 M) reduced glutathione (4.00 eq. 25.2 mg, 82.00 µmol) dissolved in 400 µL of ABIC buffer 50 mM pH 7.4 was added. The reaction mixture was incubated for 24 h at 37 °C and monitored by LC-ESI-HRMS/MS.
To a solution of compound 13k in acetonitrile (1.00 eq., 4.3 mg in 200 µL, 3.92 × 10^−2 M) reduced glutathione (4.00 eq. 9.64 mg, 31.36 µmol) dissolved in 200 µL of ABIC buffer 50 mM pH 7.4 was added. The reaction mixture was incubated for 24 h at 37 °C and monitored by LC-ESI-HRMS/MS.
SLMP53-1_M5 (1.00 eq., 2.1 mg, dissolved in 150 µL of ACN) was added to a L-lysine (2 eq.) solution in 50 mM ABIC buffer pH 7.4. Following incubation for 24 h at 37 °C a solution of cyanoborohydride (2 eq) was added. The mixture was analyzed by LC-ESI(+)-HRMS/MS.

Series [4] can be described thus: Bioactivation: S9 rat liver fraction and HLM incubations in the presence of glutathione. It is filed as in vitro ADME, human. The protocol:
For the generation of Phase I metabolites: tested compounds, at a 10 μM concentration (1 μL of 5 mM DMSO stock solution), were incubated with HLM (1 mg protein/mL), Vivid® regenerating system (5 μL) and NADPH (1mM) in ABIC 50 mM buffer pH 7.4, for a total incubation volume of 500 μL. Incubations were run in duplicate, at 37 °C. Aliquots were collected at 0, 5, 10, 20, 30, 40, 50, 60, 75, 90, 120, 180 min and reactions were stopped by adding and ice-cold solution of reserpine (2.5 μM) in acetonitrile. Additional aliquots were taken at 0 and 120 min and subsequently treated with L-lysine (100 µM) and sodium cyanoborohydride (10 µM) or glutathione (100 µM). Following centrifugation (10,000 rpm, 15 min, RT), the clear supernatants were collected and analyzed LC-ESI-HRMS/MS. […]
Tested compounds at a 10 μM concentration (1 μL of 5 mM DMSO stock solution) were incubated with rat liver S9 fraction (2 mg protein/mL), Vivid® regenerating system (2 μL) and NADPH (1mM) in ABIC 50 mM buffer pH 7.4, for a total incubation volume of 500 μL. […] Following centrifugation (10,000 rpm, 15 min, RT) the clear supernatants were collected and analyzed LC-ESI-HRMS/MS. […]

Series [5] in a line: Human liver microsomes incubations: half-life and intrinsic clearance. Conditions: for Intrinsic Clearance / clearance classification: HLM; for Intrinsic Clearance: calculated from half-life (Equation 2); for clearance classification: classification after ref 32; for half-life at 10 μM: human, liver microsomes, pH 7.4, HLM 1 mg protein/mL, NADPH, 37 °C. It is filed as in vitro ADME. On the procedure:
For the generation of Phase I metabolites: tested compounds, at a 10 μM concentration (1 μL of 5 mM DMSO stock solution), were incubated with HLM (1 mg protein/mL), Vivid® regenerating system (5 μL) and NADPH (1mM) in ABIC 50 mM buffer pH 7.4, for a total incubation volume of 500 μL. Incubations were run in duplicate, at 37 °C. Aliquots were collected at 0, 5, 10, 20, 30, 40, 50, 60, 75, 90, 120, 180 min and reactions were stopped by adding and ice-cold solution of reserpine (2.5 μM) in acetonitrile. Additional aliquots were taken at 0 and 120 min and subsequently treated with L-lysine (100 µM) and sodium cyanoborohydride (10 µM) or glutathione (100 µM). Following centrifugation (10,000 rpm, 15 min, RT), the clear supernatants were collected and analyzed LC-ESI-HRMS/MS. Control incubations were conducted in the same conditions: (1) using DMSO as negative control, in absence of the test drug; (2) using heat-denatured HLM (90 °C, 15 min); (3) using nevirapine, as a positive control, instead of the tested compound; and (4) in absence of NADPH co-factor.
The in vitro depletion half-lives of tested compounds t1/2 were calculated using Equation (1), assuming that testing compounds follow a first-order kinetic trend. The “slope” was determined from linear fitting of the natural logarithm of the concentration of drug remaining plotted against time:(1) t1/2=ln2/slope
The intrinsic clearance in HLM (CLint, HLM) was calculated using Equation (2):(2) CLint HLM =ln2/ t1/2 x mL incubation/mg microsomes x 45 mg microsomes/g liver x 26 g liver/Kg b.w.

On the set-up of series [6]: method as in PMID 26735173. The conditions noted are these: cited from earlier work.
Series [7] in a line: Glucuronidation in alamethicin induced-HLM with NADPH and UDPGA. It is filed as in vitro ADME, human. The conditions noted are these: NADPH, UDPGA, LC-ESI(-)-HRMS/MS. On the procedure:
For the generation of glucuronidation metabolites: HLM were preincubated for 15 min with alamethicin (25 µg/mL). Incubations were then run in duplicate at 37 °C, using the following conditions: test compounds at a concentration of 25 µM (1 μL of DMSO stock solution 5 mM), HLM (1 mg/mL, 10 μL), NADPH (5 mM), MgCl2 (2 mM), UDPGA (5 mM) for a final volume of 200 μL, in 50 mM ABIC buffer pH 7.4. Control incubations were conducted in the same conditions using: (1) DMSO as negative control, in absence of the test compound; (2) heat-denatured HLM (90 °C, 15 min); and (3) in absence of UDPGA co-factor. Aliquots (50 μL) were collected at 0 and 2 h and then quenched with 50 μL of a cold 2.5 μM reserpine solution in acetonitrile. All the samples were vortexed and centrifuged for 15 min at 10,000 rpm. The supernatants were collected and stored at −20 °C until further analysis by LC-ESI-HRMS/MS.

Series [8] concerns HCT116 p53−/− cells. On the set-up: method as in PMID 26735173. Conditions: 48 h treatment; cited from earlier work.
A short description of series [9]: Human plasma incubations (stability). Type of series: in vitro ADME. The conditions noted are these: 37 °C, 40 μM. The protocol: Human plasma incubations were performed in duplicate, at 37 °C, by standard methodology. Specifically, incubations contained 40 μM of the test compound for a final volume of 1 mL. The mixtures were incubated for a total time of 24 h, and aliquots following 0, 30, 60, 120, 180 min and 24 h and quenched with a cold solution of reserpine 0.1 mM in acetonitrile. Following centrifugation (10,000 rpm, 10 min, RT), the clear supernatants were collected and analyzed by LC-ESI(+)-MS/MS. Additional control assays were conducted using PBS pH 7.4 instead of plasma solution and using procaine as a positive control.

For series [10], the system named is HCT116 p53+/+ cells. On the set-up: method as in PMID 26735173. Conditions: 48 h treatment; cited from earlier work.
[11] abbreviates: mean ± SEM of 3–5 independent experiments.
[12] abbreviates: mean ± SEM of 5 independent experiments.

Broadly, the half-life is how long it takes for the measured level to halve. A lower half-life goes with rapid decline.

On to `O=C1c2ccccc2[C@@]2(c3ccccc3)OC[C@H](Cc3c(Br)n(Cc4ccccc4)c4ccccc34)N12` [Compound 13k, (3S, 9bR)-3-((1-benzyl-2-bromo-1H-indol-3-yl)methyl)-9b-phenyl-2,3-dihydrooxazolo[2,3-a]isoindol-5(9bH)-one], for which the GI50 in the series on HCT116 p53−/− cells [1] (setting [11]) was 30.5 ± 2.1 µM. In addition, the “S.I. (selectivity index)” value in the series on HCT116 p53+/+ cells [2] worked out at 3.8. In addition, the GI50 in the series on HCT116 p53+/+ cells [2] (setting [11]) is 8.09 ± 2.01 µM. Also, in series [3] (with or without enzymatic conditions (S9 rat liver incubations)), the “products of addition of GSH with concomitant loss of bromine” value is “no products compatible with the addition of GSH, and the concomitant loss of bromine, were detected”. The “GSH adducts stemming from the bioactivation of Phase I metabolites” value in series [4] (S9 rat liver fraction incubation in the presence of GSH) was “no adducts stemming from the bioactivation of Phase I metabolites were identified”. In addition, in series [5], the “Intrinsic Clearance” value was 3.4 mL/min/kg, the clearance classification entry is on record as “low clearance” and the half-life at 10 μM worked out at 2.45 h.

Regarding `CC12OCC(Cc3c[nH]c4ccccc34)N1C(=O)c1ccccc12` (stereo not shown) [SLMP53-1], the “toxicity alerts in vivo” value in series [6] was “not associated with toxicity alerts”. In addition, the “Phase II (glucuronic acid conjugate) metabolites identified” value in [7] is reported as “two glucuronic acid conjugates were identified”. The GSH adducts identified entry in series [4] (S9 rat liver fraction and HLM in the presence of GSH) is listed as “Two GSH adducts were identified”. The GI50 in the series on HCT116 p53−/− cells [8] is 34 ± 3.5 µM. Besides, the “stability towards plasmatic enzymes” value in series [9] was “stable towards plasmatic enzymes for 3 h”. In the series with HCT116 p53+/+ cells [10], the GI50 is 15.6 ± 1.6 µM. In addition, in series [5], the “Intrinsic Clearance” value was 3.67 mL/min/kg, the clearance classification entry is recorded as “low clearance” and the half-life at 10 μM is 2.3 h.

For the molecule `C[C@]12OC[C@H](CC(=O)c3ccccc3NC=O)N1C(=O)c1ccccc12` [SLMP53-1_M5, N-(2-(2-((3S,9bR)-9b-methyl-5-oxo-2,3,5,9b-tetrahydrooxazolo[2,3-a]isoindol-3-yl)acetyl)phenyl)formamide], the GI50 came to 44 ± 1.8 µM with HCT116 p53−/− cells [1] (setting [12]) and 48.8 ± 2.3 µM with HCT116 p53+/+ cells [2] (setting [12]). For the same molecule, the “reaction products upon L-lysine incubation” value in series [3] (followed by reductive stabilization, 24 h, 37 °C) is given as “no reaction products were obtained”.

For the molecule `Cn1cc(C[C@H]2CO[C@]3(c4ccccc4)c4ccccc4C(=O)N23)c2ccccc21` [SLMP53-2], the GI50 in the series with HCT116 p53−/− cells [1] (setting [11]) was 17.7 ± 2.3 µM. The “S.I. (selectivity index)” value in the series with HCT116 p53+/+ cells [2] came to 2.1. The GI50 in the series with HCT116 p53+/+ cells [2] (setting [11]) came out at 8.4 ± 1.1 µM. Besides, in series [7], the “Phase II (glucuronic acid conjugate) metabolites identified” value is given as “no Phase II metabolites were identified”. Besides, in [9], the “stability towards plasmatic enzymes” value is recorded as “stable towards plasmatic enzymes for 3 h”. Besides, in series [5] (listed as SLMP53-2 (7)), the “Intrinsic Clearance” value was 2.75 mL/min/kg. In addition, in [5], the clearance classification entry was “low clearance” and the half-life at 10 μM worked out at 2.45 h.
